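Assay format: 96-well plates, 48-hour exposure. The concentration for 50% growth inhibition is given as GI50.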 Active and inactive are the calls of the source. Rule as the data show it: active = GI50 up to about 1.1 µM and inactive = higher.
Tests used:
Assay in all cases: NCI tumour cell line growth inhibition, 48 h
HL-60 = system: HL-60
SNB-75 = system: SNB-75
IGROV-1 = system: IGROV-1
ACHN = system: ACHN
NCI-H23 = system: NCI-H23
HT-29 = system: HT-29
UACC-257 = system: UACC-257
SK-OV-3 = system: SK-OV-3
HOP-92 = system: HOP-92
M14 = system: M14
TK-10 = system: TK-10
OVCAR-8 = system: OVCAR-8
A498 = system: A498
SN12C = system: SN12C
SF-539 = system: SF-539

Measured: GI50

CCCCCCCC[N+](C)(C)Cc1ccc(C[N+](C)(C)CCCCCCCC)cc1
inactive: HL-60 36.4 µM | SNB-75 15.8 µM | IGROV-1 13.4 µM | ACHN > 100 µM | NCI-H23 4.55 µM | HT-29 6.03 µM | UACC-257 41.9 µM | SK-OV-3 69.7 µM | HOP-92 32.7 µM | M14 85.9 µM | TK-10 86.9 µM | OVCAR-8 15.6 µM | A498 38.1 µM | SN12C 7.33 µM

CC(=O)OC1COC(Nc2ccc(C(C)=O)cc2)C(OC(C)=O)C1OC(C)=O (configuration not stated)
inactive: SNB-75 > 100 µM | SF-539 > 100 µM | IGROV-1 > 100 µM | ACHN > 100 µM | NCI-H23 > 100 µM | HT-29 > 100 µM | UACC-257 > 100 µM | SK-OV-3 > 100 µM | HOP-92 > 100 µM | M14 > 100 µM | TK-10 > 100 µM | OVCAR-8 > 100 µM | A498 > 100 µM | SN12C > 100 µM

c1ccc(SC(CCCCOC2CCCCO2)Sc2ccccc2)cc1 (configuration not stated)
inactive: HL-60 20.4 µM | SNB-75 49.8 µM | SF-539 > 100 µM | IGROV-1 82.8 µM | ACHN 59.7 µM | NCI-H23 40.8 µM | HT-29 52 µM | UACC-257 63.8 µM | SK-OV-3 > 100 µM | HOP-92 11.8 µM | M14 > 100 µM | TK-10 > 100 µM | OVCAR-8 87.5 µM | A498 88.7 µM | SN12C > 100 µM

Cc1ccccc1-c1cc(=O)c2cc(C)c(C)c(C(=O)O)c2o1
inactive: HL-60 > 100 µM | SNB-75 > 100 µM | SF-539 > 100 µM | IGROV-1 > 100 µM | ACHN > 100 µM | NCI-H23 > 100 µM | HT-29 > 100 µM | UACC-257 > 100 µM | SK-OV-3 > 100 µM | HOP-92 > 100 µM | M14 > 100 µM | TK-10 > 100 µM | OVCAR-8 > 100 µM | SN12C > 100 µM

O=C(NC(=O)c1cn(CCN2CCN(C(=O)NCCCCCCNC(=O)N3CCN(CCn4cc(C(=O)NC(=O)OCc5ccccc5)c(=O)[nH]c4=O)CC3)CC2)c(=O)[nH]c1=O)OCc1ccccc1
inactive: HL-60 > 100 µM | SNB-75 60.8 µM | SF-539 > 100 µM | IGROV-1 > 100 µM | ACHN > 100 µM | NCI-H23 > 100 µM | HT-29 > 100 µM | UACC-257 > 100 µM | SK-OV-3 > 100 µM | HOP-92 > 100 µM | M14 > 100 µM | TK-10 > 100 µM | OVCAR-8 > 100 µM | SN12C > 100 µM

COc1cc(/C=C2\[C@H]3c4c(c(OC)c(C)c(OC)c4OC)CC(C(=O)N2Cc2ccccc2)N3C)c(OC)c(C)c1OC
inactive: HL-60 15.7 µM | SNB-75 25.4 µM | SF-539 19.3 µM | IGROV-1 21.8 µM | ACHN 26.1 µM | NCI-H23 34.3 µM | HT-29 19.1 µM | UACC-257 21 µM | SK-OV-3 29.5 µM | HOP-92 19.9 µM | M14 18.1 µM | TK-10 33.5 µM | OVCAR-8 38.5 µM | A498 27 µM | SN12C 17.9 µM

COC(=O)CC1NC(=O)C1C(C)(OC)OC (configuration not stated)
inactive: HL-60 > 100 µM | SNB-75 30.3 µM | SF-539 > 100 µM | IGROV-1 > 100 µM | ACHN > 100 µM | NCI-H23 > 100 µM | HT-29 > 100 µM | UACC-257 > 100 µM | M14 > 100 µM | TK-10 > 100 µM | OVCAR-8 > 100 µM | A498 > 100 µM | SN12C > 100 µM

CC1=C(c2ccccc2)CON(c2ccccc2)C1
inactive: HL-60 26.6 µM | SF-539 40.6 µM | IGROV-1 43.3 µM | ACHN 30.2 µM | NCI-H23 51.5 µM | HT-29 36.9 µM | UACC-257 40.8 µM | SK-OV-3 > 100 µM | M14 33.4 µM | OVCAR-8 33.5 µM | SN12C 53.6 µM

CC(=O)Nc1ccc(C(=O)N2N=C(C)/C(=C/c3cccc([N+](=O)[O-])c3)C2=O)cc1
inactive: HL-60 > 100 µM | SNB-75 > 100 µM | SF-539 > 100 µM | ACHN > 100 µM | NCI-H23 > 100 µM | HT-29 > 100 µM | UACC-257 > 100 µM | M14 > 100 µM | TK-10 > 100 µM | OVCAR-8 > 100 µM | SN12C > 100 µM

O=C1c2ccccc2C(=O)N1C/C=C/CO
inactive: HL-60 > 100 µM | SNB-75 > 100 µM | SF-539 > 100 µM | IGROV-1 > 100 µM | ACHN > 100 µM | UACC-257 > 100 µM | SK-OV-3 > 100 µM | M14 > 100 µM | TK-10 > 100 µM | OVCAR-8 > 100 µM | A498 > 100 µM | SN12C > 100 µM

COC1OC2COC(c3ccccc3)OC2C(O)C1Br (configuration not stated)
inactive: HL-60 > 100 µM | SF-539 > 100 µM | IGROV-1 > 100 µM | ACHN > 100 µM | NCI-H23 > 100 µM | HT-29 > 100 µM | UACC-257 > 100 µM | HOP-92 > 100 µM | M14 > 100 µM | TK-10 > 100 µM | OVCAR-8 > 100 µM | A498 > 100 µM | SN12C > 100 µM

C1=CC=C2NCCC/N=C3/C=CC=CC=C3NCCC/N=C\2C=C1
inactive: HL-60 > 100 µM | SNB-75 > 100 µM | SF-539 > 100 µM | IGROV-1 > 100 µM | ACHN > 100 µM | HT-29 > 100 µM | SK-OV-3 > 100 µM | HOP-92 > 100 µM | M14 > 100 µM | TK-10 > 100 µM | OVCAR-8 > 100 µM | A498 > 100 µM | SN12C > 100 µM

O=C1CC2Sc3ccccc3N=C2N1c1ccc(Cl)cc1Cl (configuration not stated)
inactive: HL-60 18.8 µM | SNB-75 99.1 µM | IGROV-1 78.2 µM | ACHN 54.3 µM | NCI-H23 87.7 µM | HT-29 92 µM | UACC-257 > 100 µM | HOP-92 30.3 µM | M14 71 µM | TK-10 > 100 µM | OVCAR-8 59.3 µM | SN12C 39.9 µM

COc1ccc2c3c([nH]c2c1[N+](=O)[O-])C(C)N(Cc1ccc([N+](=O)[O-])cc1)CC3 (configuration not stated)
inactive: HL-60 3.22 µM | SF-539 > 100 µM | IGROV-1 39.8 µM | ACHN 18.1 µM | NCI-H23 6.7 µM | HT-29 8.75 µM | UACC-257 12.9 µM | M14 8.43 µM | TK-10 29.6 µM | OVCAR-8 16.2 µM | A498 14.8 µM | SN12C 18.5 µM

C/C(=C1/CCC/C(=C(/C)c2ccccc2)C1=O)c1ccccc1
inactive: HL-60 10.7 µM | SNB-75 63.1 µM | SF-539 62.4 µM | IGROV-1 79.4 µM | ACHN 38.6 µM | NCI-H23 27.5 µM | HT-29 26.4 µM | UACC-257 25 µM | SK-OV-3 > 100 µM | HOP-92 38.8 µM | M14 33.3 µM | TK-10 > 100 µM | OVCAR-8 41.7 µM | SN12C 50.7 µM
